According to US10472347B2, “Aminopyrazine compounds with A2A antagonist properties” (Merck Sharp & Dohme Corp., priority 2014, dated 2019):

Molecular target: T1, human A2a receptor (Homo sapiens, UniProt P29274)
T1 construct: purchased Perkin-Elmer RBHA2AM400UA; host or cells: HEK293 cells (membranes)
Test: A2a competition binding assay, Scintillation Proximity technology
Settings: membranes from HEK293 cells expressing human A2a receptor; for EC50: 0.5 nM tritiated ligand; for Ki: Ki by Cheng-Prusoff equation
Procedure: Binding affinities of compounds of the invention for the human A2a receptor were determined in a competition binding assay using Scintillation Proximity technology. Thus, […] from HEK293 cells expressing the human A2a receptor were incubated with a compound of the invention at concentrations ranging from 3000 nM to 0.15 nM in a reaction mixture containing also 0.5 nM of a tritiated form of 5-amino-7-[2-phenethyl]-2-(furan-2-yl)-7H-pyrazolo[4,3-e][1,2,4]triazolo[1,5-c]pyrimidine (the tritiated compound) and 100 μg of wheat germ agglutin-coated yttrium silicate SPA beads for one hour at room temperature with agitation. The beads were then allowed to settle to the bottom of the wells for 1 hr, after which the membrane-associated radioactivity was determined by scintillation counting in a TopCount microplate reader. Ki values were determined using the Cheng-Prusoff equation.
HEK293 cells expressing the human, rat, dog or monkey adenosine 2a receptor (Purchased from Perkin-Elmer # RBHA2AM400UA).
The Tritiated compound was prepared in-house by MRL Radiochemistry according to published methods.
Wheat germ agglutinin-coated yttrium silicate SPA beads (GE Healthcare #RPNQ0023). Dilute to 25 mg/ml in assay buffer.
Assay Buffer was prepared in house: Dulbecco's calcium and magnesium free phosphate buffered saline+10 mM MgCl2
Adenosine deaminase from calf intestine, 10 mg/2 ml (Roche #10 102 105 001).
A2a antagonist standard (9-chloro-1-(2-furanyl)-[1,2,4]triazolo1,5-c]quinazolin-5-amine from Tocris Bioscience)
Make eight 1:3 serial dilutions in 100% DMSO from a 3 mM compound stock
Transfer 50 nl of compound into a 384-well OptiPlate (Perkin Elmer).
Typically, final concentrations of compound used in the assay ranged from 3000 nM to 0.152 nM.
Dilute a solution of the Tritiated compound to 1.25 nM in assay buffer. This is a 2.5× solution. The final concentration in the assay is 0.5 nM. Calculate the concentration by counting two 5 μl aliquots.
Use 0.25 ug of membrane/well. Dilute membranes to 9.7 μg/ml in assay buffer. Treat with 20 ug/ml adenosine deaminase (ADA) for 15 minutes at room temperature to degrade endogenous adenosine.
Use 100 μg/well wheat germ agglutinin-coated yttrium silicate SPA beads.
Mix ADA-treated membranes and SPA beads together for 30 min prior to assay.
To the Perkin-Elmer Optiplate-384 containing the compound titration add 20 μl of 2.5× solution of the Tritiated compound and 30 μl of the membrane-bead mixture. Incubate for one hour at room temperature with agitation.
Include total binding (assay buffer+1% DMSO) and non-specific binding (CGS15943, 1 μM) wells.
Allow the beads to settle for one hour.
A curve fitting program (i.e., Prism, Activity Base, Chemcart) is used to determine the EC50. The Ki value is calculated using the Cheng-Prusoff equation. Ki=EC50/(1+(radioligand concentration/Kd))

T1 sequence (P29274 whole entry): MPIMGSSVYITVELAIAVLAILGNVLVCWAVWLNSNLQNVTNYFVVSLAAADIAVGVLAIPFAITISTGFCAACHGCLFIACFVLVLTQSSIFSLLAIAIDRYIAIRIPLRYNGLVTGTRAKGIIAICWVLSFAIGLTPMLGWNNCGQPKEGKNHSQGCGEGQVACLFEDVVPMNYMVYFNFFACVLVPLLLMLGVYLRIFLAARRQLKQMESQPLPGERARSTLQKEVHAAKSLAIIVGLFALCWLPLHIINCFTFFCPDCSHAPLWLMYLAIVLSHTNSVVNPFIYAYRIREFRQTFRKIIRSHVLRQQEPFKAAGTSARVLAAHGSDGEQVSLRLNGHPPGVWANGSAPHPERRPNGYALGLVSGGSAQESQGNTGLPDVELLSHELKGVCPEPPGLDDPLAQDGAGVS

| Compound | EC50 [nM] | Ki [nM] |
| --- | --- | --- |
| Cc1nc(C(=O)N[C@@H]2CCc3cccnc32)c(N)nc1-c1ncco1 (single isomer, unassigned) [Ex-1A] | 4 |  |
| Cc1nc(C(=O)N[C@H]2CCc3cccnc32)c(N)nc1-c1ncco1 (single isomer, unassigned) [Ex-1B] | 2.9 |  |
| Cc1nc(C(=O)NC(C)c2ccccn2)c(N)nc1-c1ncco1 (single isomer, unassigned) [Ex-82A, 3-amino-6-methyl-5-(1,3-oxazol-2-yl)-N-(1-pyridin-2-ylethyl)pyrazine-2-carboxamide] |  | 2.48 |
| Cc1nc(C(=O)NC(C)c2ccccn2)c(N)nc1-c1ncco1 (single isomer, unassigned) [Ex-82B, 3-amino-6-methyl-5-(1,3-oxazol-2-yl)-N-(1-pyridin-2-ylethyl)pyrazine-2-carboxamide] |  | 43.5 |
| Cc1nc(C(=O)NC2CCCc3cnccc32)c(N)nc1-c1ncco1 (single isomer, unassigned) [Ex-84A, 3-amino-6-methyl-5-(1,3-oxazol-2-yl)-N-(5,6,7,8-tetrahydroisoquinolin-5-yl)pyrazine-2-carboxamide] |  | 280 |
| Cc1nc(C(=O)NC2CCCc3cnccc32)c(N)nc1-c1ncco1 (single isomer, unassigned) [Ex-84B, 3-amino-6-methyl-5-(1,3-oxazol-2-yl)-N-(5,6,7,8-tetrahydroisoquinolin-5-yl)pyrazine-2-carboxamide] |  | 245 |
| CCC(NC(=O)c1nc(C)c(-c2ncco2)nc1N)c1ccccn1 (single isomer, unassigned) [Ex-94A, 3-amino-6-methyl-5-(1,3-oxazol-2-yl)-N-(1-pyridin-2-ylpropyl)pyrazine-2-carboxamide] |  | 8.7 |
| CCC(NC(=O)c1nc(C)c(-c2ncco2)nc1N)c1ccccn1 (single isomer, unassigned) [Ex-94B, 3-amino-6-methyl-5-(1,3-oxazol-2-yl)-N-(1-pyridin-2-ylpropyl)pyrazine-2-carboxamide] |  | 138 |
| Cc1nc(C(=O)NC2CCCC(O)CC2)c(N)nc1-c1ncco1 (single isomer, unassigned) [Ex-165A, 3-amino-N-(4-hydroxycycloheptyl)-6-methyl-5-(1,3-oxazol-2-yl)pyrazine-2-carboxamide] |  | 13.1 |
| Cc1nc(C(=O)NC2CCCC(O)CC2)c(N)nc1-c1ncco1 (single isomer, unassigned) [Ex-165B, 3-amino-N-(4-hydroxycycloheptyl)-6-methyl-5-(1,3-oxazol-2-yl)pyrazine-2-carboxamide] |  | 2.12 |
| Cc1nc(C(=O)NC2CCCC(O)CC2)c(N)nc1-c1ncco1 (single isomer, unassigned) [Ex-165C, 3-amino-N-(4-hydroxycycloheptyl)-6-methyl-5-(1,3-oxazol-2-yl)pyrazine-2-carboxamide] |  | 7.64 |
| Cc1nc(C(=O)NC2CCCC(O)CC2)c(N)nc1-c1ncco1 (single isomer, unassigned) [Ex-165D, 3-amino-N-(4-hydroxycycloheptyl)-6-methyl-5-(1,3-oxazol-2-yl)pyrazine-2-carboxamide] |  | 9.34 |
| Cc1nc(C(=O)NC2CCCC2(F)F)c(N)nc1-c1ncco1 (single isomer, unassigned) [Ex-191A, 3-amino-N-(2,2-difluorocyclopentyl)-6-methyl-5-(1,3-oxazol-2-yl)pyrazine-2-carboxamide] |  | 1.33 |
| Cc1nc(C(=O)NC2CCCC2(F)F)c(N)nc1-c1ncco1 (single isomer, unassigned) [Ex-191B, 3-amino-N-(2,2-difluorocyclopentyl)-6-methyl-5-(1,3-oxazol-2-yl)pyrazine-2-carboxamide] |  | 2.56 |
| Cc1nc(C(=O)NC2CCCc3cccnc32)c(N)nc1-c1ncco1 (single isomer, unassigned) [Ex-230A, 3-amino-6-methyl-5-(1,3-oxazol-2-yl)-N-(5,6,7,8-tetrahydroquinolin-8-yl)pyrazine-2-carboxamide] |  | 3.74 |
| Cc1nc(C(=O)NC2CCCc3cccnc32)c(N)nc1-c1ncco1 (single isomer, unassigned) [Ex-230B, 3-amino-6-methyl-5-(1,3-oxazol-2-yl)-N-(5,6,7,8-tetrahydroquinolin-8-yl)pyrazine-2-carboxamide] |  | 0.762 |
| COc1ccc2c(c1)CCC2NC(=O)c1nc(C)c(-c2ncco2)nc1N (single isomer, unassigned) [Ex-231A, 3-amino-N-(5-methoxy-2,3-dihydro-1H-inden-1-yl)-6-methyl-5-(1,3-oxazol-2-yl)pyrazine-2-carrboxamide] |  | 29.2 |
| COc1ccc2c(c1)CCC2NC(=O)c1nc(C)c(-c2ncco2)nc1N (single isomer, unassigned) [Ex-231B, 3-amino-N-(5-methoxy-2,3-dihydro-1H-inden-1-yl)-6-methyl-5-(1,3-oxazol-2-yl)pyrazine-2-carboxamide] |  | 10.5 |
| Cc1nc(C(=O)NC2CCc3ccccc3C2)c(N)nc1-c1ncco1 (single isomer, unassigned) [Ex-233A, 3-amino-6-methyl-5-(1,3-oxazol-2-yl)-N-(1,2,3,4-tetrahydronaphthalen-2-yl)pyrazine-2-carboxamide] |  | 1.15 |
| Cc1nc(C(=O)NC2CCc3ccccc3C2)c(N)nc1-c1ncco1 (single isomer, unassigned) [Ex-233B, 3-amino-6-methyl-5-(1,3-oxazol-2-yl)-N-(1,2,3,4-tetrahydronaphthalen-2-yl)pyrazine-2-carboxamide] |  | 0.572 |
| Cc1nc(C(=O)NC2c3ncccc3CC2O)c(N)nc1-c1ncco1 (single isomer, unassigned) [Ex-238A, 3-amino-N-(6-hydroxy-6,7-dihydro-5H-cyclopenta[b]pyridin-7-yl)-6-methyl-5-(1,3-oxazol-2-yl)pyrazine-2-carboxamide] |  | 5.51 |
| Cc1nc(C(=O)NC2c3ncccc3CC2O)c(N)nc1-c1ncco1 (single isomer, unassigned) [Ex-238B, 3-amino-N-(6-hydroxy-6,7-dihydro-5H-cyclopenta[b]pyridin-7-yl)-6-methyl-5-(1,3-oxazol-2-yl)pyrazine-2-carboxamide] |  | 0.94 |
| Cc1nc(C(=O)NC2CCc3c(Cl)ccnc32)c(N)nc1-c1ncco1 (single isomer, unassigned) [Ex-244A, 3-amino-N-(4-chloro-6,7-dihydro-5H-cyclopenta[b]pyridin-7-yl)-6-methyl-5-(1,3-oxazol-2-yl)pyrazine-2-carboxamide] |  | 0.22 |
| Cc1nc(C(=O)NC2CCc3c(Cl)ccnc32)c(N)nc1-c1ncco1 (single isomer, unassigned) [Ex-244B, 3-amino-N-(4-chloro-6,7-dihydro-5H-cyclopenta[b]pyridin-7-yl)-6-methyl-5-(1,3-oxazol-2-yl)pyrazine-2-carboxamide] |  | 1.28 |
| Cc1nc(C(=O)NC2CCc3ccc(Cl)nc32)c(N)nc1-c1ncco1 (single isomer, unassigned) [Ex-245A, 3-amino-N-(2-chloro-6,7-dihydro-5H-cyclopenta[b]pyridin-7-yl)-6-methyl-5-(1,3-oxazol-2-yl)pyrazine-2-carboxamide] |  | 6.69 |
| Cc1nc(C(=O)NC2CCc3ccc(Cl)nc32)c(N)nc1-c1ncco1 (single isomer, unassigned) [Ex-245B, 3-amino-N-(2-chloro-6,7-dihydro-5H-cyclopenta[b]pyridin-7-yl)-6-methyl-5-(1,3-oxazol-2-yl)pyrazine-2-carboxamide] |  | 4.39 |
| Cc1nc(C(=O)NC2CCOc3ccccc32)c(N)nc1-c1ncco1 (stereo in doubt) [Ex-145, 3-amino-N-[(4R)-3,4-dihydro-2H-chromen-44-yl]-6-methyl-5-(1,3-oxazol-2-yl)pyrazine-2-carboxamide] |  | 4.22 |
| Cc1nc(C(=O)NC2CCOc3ccccc32)c(N)nc1-c1ncco1 (stereo in doubt) [Ex-146, 3-amino-N-[(4S)-3,4-dihydro-2H-chromen-4-yl]-6-methyl-5-(1,3-oxazol-2-yl)pyrazine-2-carboxamide] |  | 5.57 |
| COC[C@H]1CCC[C@H]1NC(=O)c1nc(C)c(-c2ncco2)nc1N (stereo in doubt) [Ex-171, 3-amino-N-[(1R,2S)-2-(methoxymethyl)cyclopentyl]-6-methyl-5-(1,3-oxazol-2-yl)pyrazine-2-carboxamide] |  | 1.03 |
